Reference: paper PMC8065691, “Polymerizable Matrix Metalloproteinases’ Inhibitors with Potential Application for Dental Restorations” (Biomedicines, 2021)

How the values were obtained:
[1] = Cytotoxicity study using MTT assay, MG-63; format: cell-based; settings: human, MG-63 osteoblast-like cells, extract, mean, read-out: Cell Viability (%) MG-63 M; for viability at 24 h, 20 µM (stock): MG-63, inhibitor concentration 20 μM; for viability at 24 h, 50 µM (stock): MG-63, inhibitor concentration 50 µM; for viability at 24 h, 100 µM (stock): MG-63, inhibitor concentration 100 µM
Protocol: (§1) Two cell lines, fibroblastic cells NIH/3T3 from mouse embryo (93061524) obtained from Health Protection Agency Culture Collections and supplied by Sigma and MG-63 osteoblast-like cells from human osteosarcoma (ATCC® CRL-1427^TM) were used for cytotoxicity studies. Defrosting and handling of cell lines was carried out according to supplier information.
(§2) The NIH/3T3 cells were grown in Dulbecco’s Modified Eagle Medium (DMEM, Sigma) supplemented with 10% calf bovine serum (Sigma) and 1% Penicillin-Streptomycin solution: 10,000 U/mL penicillin, 10 mg/mL streptomycin, Sigma) and 2.5 mg/L amphotericin B (fungizone, Sigma). MG-63 cells were grown in Eagle’s Minimum Essential Medium (EMEM, Sigma) supplemented with 10% fetal bovine serum and 1% of antibiotics and 2.5 mg/L antimycotics solutions.
(§3) Extracts from each compound A, B or C were prepared by spreading 20 μL of a solution with 20 μM, 50 μM or 100 μM of each compound in a glass petri dish, allowed to dry, and incubated at 37 °C under humidified 5% CO2 for 24 h with 10 mL of the corresponding growth medium according to ISO 10993–12: 2012.
(§4) The cytotoxicity assay was performed as follows: 1 × 10^4 cells per well, from passages 8 to 12, were seeded in 96-well plates (eight replicates) and incubated at 37 °C under humidified 5% CO2 for 24 h. After proliferation, the cell medium was replaced by 200 μL of each extract and incubated under the same conditions for 24 h. As positive control cells were grown in their medium containing 7.5% DMSO (Sigma) and as negative control cells proliferated in medium without any toxic corresponding to 100% cell viability. MTT assays were performed as previously described. Briefly, extracts or medium were removed, an MTT solution (0.5 mg/mL prepared in serum-free medium, Sigma) was added to each well and cells were incubated for additional 3 h. After that, a solution containing 0.1% IGEPAL (Merck), 4 mM HCl (Sigma) in isopropanol (Sigma) was used to dissolve formazan. Plates were incubated with agitation for one hour and absorbance was read at 595 nm with a microplate reader (Bio-Rad®, Hercules, California, USA).

[2] = tested on: MMPs; experiment: Preliminary biochemical tests (not shown); settings: data not shown, most MMPs
Description: However, there were additional interactions between the compounds and the enzyme depending on the enzyme class (collagenases and gelatinases) (See Appendix B, Appendix C, Appendix D and Appendix E).

[3] = tested on: NIH/3T3 fibroblast cells; experiment: Cytotoxicity study using MTT assay, NIH/3T3; format: cell-based, mouse; settings: NIH/3T3 cells, 50 and 100 µM
Protocol: as §1, §2, §3, §4

[4] = Cytotoxicity study using MTT assay, NIH/3T3; format: cell-based, mouse; settings: mouse, NIH/3T3 fibroblast cells, extract, 24 h, MTT, mean, read-out: Cell Viability (%) NIH/3T3 M; for viability at 24 h, 20 µM (stock): NIH/3T3, inhibitor concentration 20 μM; for viability at 24 h, 50 µM (stock): NIH/3T3, inhibitor concentration 50 µM; for viability at 24 h, 100 µM (stock): NIH/3T3, inhibitor concentration 100 µM
Protocol: as §1, §2, §3, §4

SMILES | viability at 24 h, 20 µM (stock) [1] [%] | viability at 24 h, 50 µM (stock) [1] [%] | viability at 24 h, 100 µM (stock) [1] [%] | MMP activity reduction [2] | toxicity according to ISO 10993–5: 2009 (viable cells decreased more than 30%) [3] | viability at 24 h, 20 µM (stock) [4] [%] | viability at 24 h, 50 µM (stock) [4] [%] | viability at 24 h, 100 µM (stock) [4] [%]
C=C(C)C(=O)Nc1ccc(Oc2ccc(NC(=O)C(=C)C)cc2)cc1 [Compound C, N,N′-(oxybis(4,1-phenylene))bis(2-methylacrylamide)] | 85 | 65.8 | 69.2 | encouraging indications on activity reduction | toxic | 83.7 | 46.4 | 42.4
C=C(C)C(=O)OCCCCCOc1ccc(-c2ccc(C#N)cc2)cc1 [Compound B, 5-((4′-cyano-[1,1′-biphenyl]-4-yl)oxy)pentyl methacrylate] | 78.1 | 70.3 | 65.9 | encouraging indications on activity reduction | toxic | 78.6 | 50.5 | 40.5
C=C(C)C(=O)Oc1ccc(-c2ccc(C#N)cc2)cc1 [Compound A, 4′-cyano-[1,1′-bihenyl]-4-yl methacrylate] | 82.6 | 73.6 | 73 | encouraging indications on activity reduction | toxic | 85.1 | 54.2 | 45.5
